From patent US5120735A, “Antifungal composition” (Kaken Pharmaceutical Co., Ltd., priority 1987, dated 1992)
Where two headings read alike, the source gives them in different places. One block for each compound: values may come before it.

How the values were obtained:
[1] = test system: Candida albicans MTU 12021; test: Agar dilution MIC, single and combined use; type: cell-based; conditions: for MIC: Candida albicans, read-out: Minimum Inhibitory Concentration (MIC); for Minimum Inhibitory Concentration (MIC) of miconazole in combination with the arylmethylamine compound: MIC is that of miconazole, compound at a concentration of 100 mg/ml (so in the source); for Minimum Inhibitory Concentration (MIC) of the agent combined with Compound 1: combined with Compound 1 at 100 μg/ml; for synergistic effects of combined use with Compound 1: agent combined with Compound 1, Table 1
Procedure: (1) The effects of the combined use of Compound 1 with various imidazole antifungal agents against Candida albicans MTU 12021 strain were examined as follows. […] Then, distilled water containing 0.1% by weight of Tween 80 was added thereto to obtain drug solutions having a concentration of from 1 to 1,000 μg/ml.
(§1) 1 ml of each drug solution diluted twice was introduced into a sterilized Petri dish, and 8 ml of Sabouraud agar medium was added to prepare a agar plate. Thus, a series of agar plates for the combinations having various concentrations were prepared.
(§2) Candida albicans MTU 12021 strain cultured on a Sabouraud agar medium for 24 hours, was suspended in a saline, and a cells suspension having a concentration of 2×10^6 spores/ml was prepared by counting the number of spores by a hemacytometer. Then, 50 μl of the cells suspension was inoculated to the above agar plates by means of a microplanter (manufactured by Sakuma Seisakusho). The inoculated agar plates were cultured at 37° C. for 48 hours, whereupon the presence or absence of the growth of the strain was examined.
(§3) Culture medium: Sabouraud agar medium
(§4) Culturing condition: 37° C. for 48 hours
(§5) Strain used: Candida albicans MTU 12021

[2] = test system: ICR male mice; test: Acute toxicity, oral, mice; type: in vivo; conditions: up to 5,000 mg/kg, ICR male mice of 5 weeks old
Excerpt: To examine the acute toxicity of the arylmethylamine antifungal agents used in the composition of the present invention, Compounds 1 and 2 were selected, and they were, respectively, suspended in 0.5% methyl cellulose and orally administered to ICR male mice of 5 weeks old (body weight: 26-28 g) at a dose corresponding to the body weight.

[3] = test system: Candida albicans MTU 12021; test: Checker board method, combined use of Compound 1 with miconazole or ketoconazole; type: cell-based; conditions: for synergistic effects of combined use with Compound 1 (checker board): agent combined with Compound 1, Tables 2 and 3; for Growth: Compound 1 0; as to Growth: key: +: Growth observed; -: No growth observed
Procedure: as §1, §2, §3, §4, §5

[4] = test system: Candida albicans MTU 12021; test: Disk method (growth inhibition ring); type: cell-based; conditions: for effects of combined use with miconazole or ketoconazole: same disk method as Example 1(3)
Procedure: (3) The effects of the combined use of Compound 1 with miconazole or ketoconazole were examined by a disk method.
Candida albicans MTU 12021 stain was mixed with a Sabouraud agar medium to have a concentration of 5×10^4 spores/ml, and 10 ml thereof was poured into a sterilized Petri dish to obtain an inoculated agar plate.
50 mg of each of Compound 1, miconazole and ketoconazole was impregnated to a disk (Toyo Filter paper of 8 mm in diameter), and the disk was placed on the inoculated agar plate, followed by culturing at 37° C. for 96 hours, whereupon the synergistic effects were evaluated based on the growth inhibition ring thereby appeared.

[5] = MTU12021, single use, Sabouraud agar, 37° C., 48 hours
[6] = Sabouraud agar, 37° C., 48 hours

- MIC [1, 5]: > 100 µg/mL
- Minimum Inhibitory Concentration (MIC) of miconazole in combination with the arylmethylamine compound [1]: 3.13 µg/mL
SMILES: CN(Cc1ccc(C(C)(C)C)s1)Cc1cccc2ccccc12 [Compound 5, N-methyl-N-(1-naphthalenemethyl)-5-tert-butyl-2-thiophenemethylamine]

- MIC [1, 5]: 25 µg/mL
- Minimum Inhibitory Concentration (MIC) of the agent combined with Compound 1 [1, 6]: 25 µg/mL
SMILES: Cc1cc(O)c2c(c1)O[C@@]1(C)CC[C@H]3C(C)(C)CCC[C@]34CO[C@@H]2[C@H]41 [Siccanine]

SMILES: CCC(C)(C)c1ccc(CN(C)Cc2cccc3ccccc23)cc1 [Compound 2, N-methyl-N-4-tert-pentylbenzyl-1-naphthalenemethylamine]
- MIC [1, 5]: > 100 µg/mL
- Minimum Inhibitory Concentration (MIC) of miconazole in combination with the arylmethylamine compound [1]: 3.13 µg/mL
- death [2]: no instance of death

SMILES: CC(=O)N1CCN(c2ccc(OCC3COC(Cn4ccnc4)(c4ccc(Cl)cc4Cl)O3)cc2)CC1 (centres unmarked) [ketoconazole, reference compound]
- synergistic effects of combined use with Compound 1 (checker board) [3]: Remarkable syntergistic effects
- Growth ([3]; ketoconazole 0.1 μg/ml): +
- Growth ([3]; ketoconazole 0.2 μg/ml): +
- Growth ([3]; ketoconazole 0.39 μg/ml): +
- Growth ([3]; ketoconazole 0.78 μg/ml): +
- Growth ([3]; ketoconazole 1.56 μg/ml): +
- Growth ([3]; ketoconazole 3.13 μg/ml): +
- Growth ([3]; ketoconazole 12.5 μg/ml): +
- Growth ([3]; ketoconazole 25 μg/ml): -
- Growth ([3]; ketoconazole 50 μg/ml): -
- Growth ([3]; ketoconazole 100 μg/ml): -

- MIC [1, 5]: > 100 µg/mL
- Minimum Inhibitory Concentration (MIC) of miconazole in combination with the arylmethylamine compound [1]: 1.56 µg/mL
SMILES: CN(C/C=C/c1ccccc1)Cc1cccc2ccccc12 [Compound 6, (E)-N-cinnamyl-N-methyl-1-naphthalenemethylamine]
- effects of combined use with miconazole or ketoconazole [4]: remarkable synergistic effects

SMILES: CN(C/C=C/C#CC(C)(C)C)Cc1cccc2ccccc12 [Compound 7, (E)-N-[6,6-dimethyl-2-hepten-4-ynyl)-N-methyl-1-naphthalenemethylamine]
- MIC [1, 5]: > 100 µg/mL
- Minimum Inhibitory Concentration (MIC) of miconazole in combination with the arylmethylamine compound [1]: 0.78 µg/mL
- effects of combined use with miconazole or ketoconazole [4]: remarkable synergistic effects

- MIC [1, 5]: 25 µg/mL
- Minimum Inhibitory Concentration (MIC) of the agent combined with Compound 1 [1, 6]: 1.56 µg/mL
SMILES: Clc1ccc(C(Cn2ccnc2)OCc2c(Cl)cccc2Cl)c(Cl)c1 (centres unmarked) [isoconazole]
- synergistic effects of combined use with Compound 1 [1]: remarkable synergistic effects

- MIC [1, 5]: 50 µg/mL
- Minimum Inhibitory Concentration (MIC) of the agent combined with Compound 1 [1, 6]: 50 µg/mL
SMILES: O=[N+]([O-])c1c(Cl)cccc1-c1c[nH]cc1Cl [Pyrrolnitrin]

- MIC [1, 5]: 3.13 µg/mL
- Minimum Inhibitory Concentration (MIC) of the agent combined with Compound 1 [1, 6]: 3.13 µg/mL
SMILES: C[C@@H]1[C@H](O)[C@@H](C)/C=C/C=C/C=C/C=C/C=C/C=C/C=C/[C@H](O[C@@H]2O[C@H](C)[C@@H](O)[C@H](N)[C@@H]2O)C[C@@H]2O[C@](O)(C[C@@H](O)C[C@@H](O)[C@H](O)CC[C@@H](O)C[C@@H](O)CC(=O)O[C@H]1C)C[C@H](O)[C@H]2C(=O)O [Amphotericin B]

- MIC [1, 5]: 25 µg/mL
- Minimum Inhibitory Concentration (MIC) of the agent combined with Compound 1 [1, 6]: 1.56 µg/mL
SMILES: Clc1ccc(COC(Cn2ccnc2)c2ccc(Cl)cc2Cl)cc1 (centres unmarked) [econazole]
- synergistic effects of combined use with Compound 1 [1]: remarkable synergistic effects

SMILES: Clc1ccc(COC(Cn2ccnc2)c2ccc(Cl)cc2Cl)c(Cl)c1 (centres unmarked) [miconazole, reference compound]
- MIC ([1]; MTU12021, 48 h): 25 µg/mL
- synergistic effects of combined use with Compound 1 [1]: remarkable synergistic effects
- Minimum Inhibitory Concentration (MIC) of the agent combined with Compound 1 [1, 6]: 1.56 µg/mL
- synergistic effects of combined use with Compound 1 (checker board) [3]: Remarkable syntergistic effects
- Growth ([3]; miconazole 0.39 μg/ml): +
- Growth ([3]; miconazole 0.78 μg/ml): +
- Growth ([3]; miconazole 1.56 μg/ml): +
- Growth ([3]; miconazole 3.13 μg/ml): +
- Growth ([3]; miconazole 12.5 μg/ml): +
- Growth ([3]; miconazole 25 μg/ml): +
- Growth ([3]; miconazole 50 μg/ml): -
- Growth ([3]; miconazole 100 μg/ml): -
- growth inhibition ring, disk alone ([4]; 50 mg per disk (so in the source), 37° C., 96 hours, FIG. 2): a complete inhibitory ring with a small diameter and an incomplete inhibitory ring with a large diameter

- MIC [1, 5]: 100 µg/mL
- Minimum Inhibitory Concentration (MIC) of the agent combined with Compound 1 [1, 6]: 100 µg/mL
SMILES: O=C(CCCCCCCCC#CI)Oc1ccccc1 [KP-4249]

- MIC [1, 5]: > 100 µg/mL
- Minimum Inhibitory Concentration (MIC) of miconazole in combination with the arylmethylamine compound [1]: 6.25 µg/mL
SMILES: CN(Cc1ccc(C(C)(C)C)cc1)Cc1ccc(F)c2ccccc12 [Compound 3, N-4-tert-butylbenzyl-N-methyl-4-fluoro-1-naphthalenemethylamine]

SMILES: Clc1ccccc1C(c1ccccc1)(c1ccccc1)n1ccnc1 [clotrimazole]
- MIC ([1]; MTU12021, 48 h): 12.5 µg/mL
- synergistic effects of combined use with Compound 1 [1]: remarkable synergistic effects
- Minimum Inhibitory Concentration (MIC) of the agent combined with Compound 1 [1, 6]: 3.13 µg/mL

- MIC [1, 5]: > 100 µg/mL
- Minimum Inhibitory Concentration (MIC) of miconazole in combination with the arylmethylamine compound [1]: 1.56 µg/mL
SMILES: CN(Cc1ccc(C(C)(C)C)cc1)Cc1csc2ccccc12 [Compound 4, N-4-tert-butylbenzyl-N-methyl-3-benzo[b]thiophenemethylamine]

SMILES: Clc1ccc(CO/N=C(\Cn2ccnc2)c2ccc(Cl)cc2Cl)c(Cl)c1 [oxiconazole]
- synergistic effects of combined use with Compound 1 [1]: remarkable synergistic effects

- MIC [1, 5]: > 100 µg/mL
- Minimum Inhibitory Concentration (MIC) of the agent combined with Compound 1 [1, 6]: > 100 µg/mL
SMILES: Clc1cc(Cl)c(OCC#CI)cc1Cl [Haloprozin]
